Substitutions are numbered along the chain they refer to.
What was measured:
Assay type in all cases: biochemical
hOGA Y69S = biological target: T1, hOGA Y69S (Homo sapiens, UniProt O60502, Y69S); assay: hOGA Y69S mutant glycopeptide hydrolysis, substrate competition assay; settings: hOGA point mutant Y69S; competition with 4MU-GlcNAc; 37°C, pH 7.4; triplicate; read-out: Michaelis constant (KM) for hOGA Y69S
T1 construct: GST (N); made in house; host or cells: transiently transfected HEK293 cells
T1 sequence (O60502 1-916 Y69S): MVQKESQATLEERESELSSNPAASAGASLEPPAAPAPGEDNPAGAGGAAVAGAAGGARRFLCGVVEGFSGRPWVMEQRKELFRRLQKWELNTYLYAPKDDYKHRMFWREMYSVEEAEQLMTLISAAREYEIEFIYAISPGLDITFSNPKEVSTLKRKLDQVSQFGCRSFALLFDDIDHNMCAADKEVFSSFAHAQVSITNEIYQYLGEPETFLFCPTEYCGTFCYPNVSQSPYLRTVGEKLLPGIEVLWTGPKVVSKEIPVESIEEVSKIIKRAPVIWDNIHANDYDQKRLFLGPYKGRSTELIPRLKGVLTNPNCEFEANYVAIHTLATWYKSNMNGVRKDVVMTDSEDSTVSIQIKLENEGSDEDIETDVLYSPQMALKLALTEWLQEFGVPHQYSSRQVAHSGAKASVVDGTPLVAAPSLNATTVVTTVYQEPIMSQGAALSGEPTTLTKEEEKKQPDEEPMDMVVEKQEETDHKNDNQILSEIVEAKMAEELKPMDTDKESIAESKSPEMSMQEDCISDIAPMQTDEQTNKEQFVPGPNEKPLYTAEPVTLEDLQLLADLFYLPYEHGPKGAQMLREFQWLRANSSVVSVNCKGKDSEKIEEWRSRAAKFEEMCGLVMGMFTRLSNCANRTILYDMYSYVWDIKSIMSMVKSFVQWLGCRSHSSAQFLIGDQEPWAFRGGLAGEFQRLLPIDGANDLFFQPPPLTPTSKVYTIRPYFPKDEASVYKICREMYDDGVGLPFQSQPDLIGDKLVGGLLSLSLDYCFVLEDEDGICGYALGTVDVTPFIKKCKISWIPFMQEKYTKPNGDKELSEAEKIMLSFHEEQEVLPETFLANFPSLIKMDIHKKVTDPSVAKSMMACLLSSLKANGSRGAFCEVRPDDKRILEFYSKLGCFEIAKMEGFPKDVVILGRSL

hOGA Y69Q = biological target: T2, hOGA Y69Q (Homo sapiens, UniProt O60502, Y69Q); assay: hOGA Y69Q mutant glycopeptide hydrolysis, substrate competition assay; settings: hOGA point mutant Y69Q; competition with 4MU-GlcNAc; 37°C, pH 7.4; triplicate; read-out: Michaelis constant (KM) for hOGA Y69Q
T2 construct: GST (N); made in house; host or cells: transiently transfected HEK293 cells
T2 sequence (O60502 1-916 Y69Q): T1 sequence (O60502 1-916 Y69S) with S69Q

hOGA Y69F = biological target: T3, hOGA Y69F (Homo sapiens, UniProt O60502, Y69F); assay: hOGA Y69F mutant glycopeptide hydrolysis, substrate competition assay; settings: hOGA point mutant Y69F; competition with 4MU-GlcNAc; 37°C, pH 7.4; triplicate; read-out: Michaelis constant (KM) for hOGA Y69F
T3 construct: GST (N); made in house; host or cells: transiently transfected HEK293 cells
T3 sequence (O60502 1-916 Y69F): T1 sequence (O60502 1-916 Y69S) with S69F

Substance | Km (hOGA Y69S) | Km (hOGA Y69Q) | Km (hOGA Y69F)
p53 (Ser149) 11: 11-residue O-GlcNAc glycopeptide derived from p53 Ser149 site | 290 ± 20 µM | 170 ± 40 µM | 53 ± 5 µM
VAHS(O-GlcNAc)GAK [hOGA (Ser405) 7, 7-residue O-GlcNAc glycopeptide derived from hOGA Ser405 site] | > 4000 µM | > 4000 µM | 1200 µM
PVSVPYS(O-GlcNAc)SAQSTS [TAB1 (Ser395) 13, 13-residue O-GlcNAc glycopeptide derived from TAB1 Ser395 site] | > 4000 µM | 3600 µM | 1100 µM
